System: obese-diabetic viable yellow (AvY) mice
Assay: Demonstration of hypoglycemic efficacy: blood glucose after 14 days of compound admixed in diet
Format: in vivo
Conditions: blood glucose at day 14 as percent of initial (day 0) value, male AvY mice
Experimental: Male obese-diabetic viable yellow (AvY) mice were divided into two groups of 6 each. One group was fed repelletized purina 5008 Chow and the second group was fed repelletized Purina 5008 Chow, admixed with varying doses of the candidate compound. Blood samples were taken before the experiment was initiated and 7 and 14 days after initiation. Body weight and food consumption were monitored. The blood glucose level after 7 or 14 days of treatment was measured and recorded as a percent of the initial value, compared to the untreated control (first) group. The results are presented in the table 1 below; and include the dose of the candidate compound as a weight percent of the amount incorporated into the diet. Also in the table is a representative value for a positive control (a known hypoglycemic agent as disclosed by T. Sohda, K. Mizuno, Y. Momose, H. Ikeda, T. Fujita, and K. Meguro, J. Med. Chem., 1992, 35, 2617) administered in the same way as a candidate compound of the present invention.
BG means blood glucose level; BG0 means blood glucose level at day zero and BG14 means blood glucose level at day 14 accordingly. Takeda “Compound 17” is disclosed by T. Sohda, K. Mizuno, Y. Momose, H. Ikeda, T. Fujita, and K. Meguro, J. Med. Chem., 1992, 35, 2617.

[1] = dose .03 weight percent in diet (Purina 5008 Chow)

Row | Compound | % BG14 (BGO = 100) [1] [%] | further results
1 | 3-(4-(2-Phenyl-4-oxazolyl)ethoxy)phenyl-4-methylsulfonyl-1H-1,2-pyrazoline [Example 3] |  | % BG14 (BGO = 100) (dose .01 weight percent in diet (Purina 5008 Chow)): 72%
2 | O=c1[nH][nH]cc1S(=O)(=O)c1ccc(OCCc2coc(-c3ccccc3)n2)cc1 [Example 1, 4-(4-[2-(2-Phenyl-4-oxazolyl)ethoxy]phenylsulfonyl)-1H,2H-prazolin-3-one] | 32 | 
3 | O=c1[nH][nH]cc1S(=O)(=O)Cc1ccc(OCCc2coc(-c3ccccc3)n2)cc1 [Example 2, 4-(4-[2-(2-Phenyl-4-oxazolyl)ethoxy]phenylmethylsulfonyl)-1H,2H-prazolin-3-one] | 81 | 
4 | O=c1ccn(S(=O)(=O)c2ccc3ccccc3c2)[nH]1 [Example 4, 2-Naphthylsulfonyl-pyrazolin-3-one] |  | % BG14 (BGO = 100) (dose .1 weight percent in diet (Purina 5008 Chow)): 94%

— patent US6617342B1, “Hypoglycemic sulfonyl pyrazolones and pyrazolines” (Eli Lilly and Company, priority 1999, dated 2003)
